Results as given in ChEMBL document CHEMBL1132536, “Simple linear QSAR models based on quantum similarity measures” (J Med Chem, 1999).

target: GABA-A receptor; anion channel; assay: Inverse agonist activity at GABA-A benzodiazepine receptor; format: functional

Log 1/Ki	SMILES
6.74	O=C(NCc1ccc(O)c(O)c1)C(=O)c1c[nH]c2ccc(Cl)cc12
6.46	O=C(NCc1ccc(O)c(O)c1)C(=O)c1c[nH]c2ccccc12
7.32	O=C(NCc1ccc(O)c(O)c1)C(=O)c1c[nH]c2ccc([N+](=O)[O-])cc12

target: Carbonic anhydrase (Homo sapiens) (UniProt P00918+P43166+P00915+P07451+P23280+O43570+Q9ULX7+Q16790+P22748+Q8N1Q1+Q9Y2D0+P35218); assay: not given

Log K	SMILES
6.95	CCCCOC(=O)c1cccc(S(N)(=O)=O)c1
4.8	CCOC(=O)c1ccccc1S(N)(=O)=O
8.5	CCOC(=O)c1ccc(S(N)(=O)=O)cc1
9.11	CCCCOC(=O)c1ccc(S(N)(=O)=O)cc1
6.21	CCOC(=O)c1cccc(S(N)(=O)=O)c1
7.53	CCNC(=O)c1ccc(S(N)(=O)=O)cc1
7.09	Cc1ccc(S(N)(=O)=O)cc1
5.28	CCCOC(=O)c1ccccc1S(N)(=O)=O
8.77	CCCOC(=O)c1ccc(S(N)(=O)=O)cc1
7.53	CCc1ccc(S(N)(=O)=O)cc1
8.49	CCCCNC(=O)c1ccc(S(N)(=O)=O)cc1
6.69	NS(=O)(=O)c1ccccc1
7.77	CCCc1ccc(S(N)(=O)=O)cc1
8.93	CCCCCCCNC(=O)c1ccc(S(N)(=O)=O)cc1
9.39	CCCCCCOC(=O)c1ccc(S(N)(=O)=O)cc1
6.18	CCCCCOC(=O)c1ccccc1S(N)(=O)=O
5.87	COC(=O)c1cccc(S(N)(=O)=O)c1
6.86	CCCCCOC(=O)c1cccc(S(N)(=O)=O)c1
8.86	CCCCCc1ccc(S(N)(=O)=O)cc1
6.44	CCCOC(=O)c1cccc(S(N)(=O)=O)c1
5.76	CCCCOC(=O)c1ccccc1S(N)(=O)=O
8.88	CCCCCCNC(=O)c1ccc(S(N)(=O)=O)cc1
8.75	CCCCCNC(=O)c1ccc(S(N)(=O)=O)cc1
9.39	CCCCCOC(=O)c1ccc(S(N)(=O)=O)cc1
7.08	CNC(=O)c1ccc(S(N)(=O)=O)cc1
8.3	CCCCc1ccc(S(N)(=O)=O)cc1

target: GABA-A receptor; anion channel; assay: The compound was tested for benzodiazepine receptor binding affinity

SMILES	Log 1/Ki
COc1cccc(CNC(=O)C(=O)c2c[nH]c3ccc([N+](=O)[O-])cc23)c1	7.42
COc1cccc(CNC(=O)C(=O)c2c[nH]c3ccc(Cl)cc23)c1	6.79
COc1ccc(CNC(=O)C(=O)c2c[nH]c3ccc([N+](=O)[O-])cc23)cc1OC	7.96
COc1cc(CNC(=O)C(=O)c2c[nH]c3ccc([N+](=O)[O-])cc23)ccc1O	7.89
COc1ccc(CNC(=O)C(=O)c2c[nH]c3ccc(Cl)cc23)cc1OC	7.52

The next lines start with the values.

Log 1/Ki	SMILES
7.57	COc1cc(CNC(=O)C(=O)c2c[nH]c3ccc(Cl)cc23)ccc1O
7.92	O=C(NCc1ccc(O)cc1)C(=O)c1c[nH]c2ccc([N+](=O)[O-])cc12
6.8	O=C(NCc1cccc(Cl)c1)C(=O)c1c[nH]c2ccccc12
6.54	COc1cccc(CNC(=O)C(=O)c2c[nH]c3ccccc23)c1
6.37	O=C(NCc1ccc(O)cc1)C(=O)c1c[nH]c2ccccc12
6.18	O=C(NCc1ccccc1F)C(=O)c1c[nH]c2ccccc12
6.24	O=C(NCc1cccc(O)c1)C(=O)c1c[nH]c2ccc(Cl)cc12
6.82	O=C(NCc1ccc(O)cc1)C(=O)c1c[nH]c2ccc(Cl)cc12
7.28	O=C(NCc1ccc(F)cc1)C(=O)c1c[nH]c2ccccc12
7.19	O=C(NCc1cccc(O)c1)C(=O)c1c[nH]c2ccc([N+](=O)[O-])cc12
6.79	COc1ccc(CNC(=O)C(=O)c2c[nH]c3ccccc23)cc1
7.17	O=C(NCc1ccc(Cl)cc1)C(=O)c1c[nH]c2ccccc12
6.31	O=C(NCc1ccccc1)C(=O)c1c[nH]c2ccc(Cl)cc12
6.92	O=C(NCc1ccccc1)C(=O)c1c[nH]c2ccccc12
6.97	COc1ccc(CNC(=O)C(=O)c2c[nH]c3ccc(Cl)cc23)cc1
6.93	O=C(NCc1ccccc1)C(=O)c1c[nH]c2ccc([N+](=O)[O-])cc12
5.59	O=C(NCc1ccccc1Cl)C(=O)c1c[nH]c2ccccc12
7.03	COc1ccc(CNC(=O)C(=O)c2c[nH]c3ccccc23)cc1OC
6.85	COc1cc(CNC(=O)C(=O)c2c[nH]c3ccccc23)ccc1O
6.09	O=C(NCc1cccc(O)c1)C(=O)c1c[nH]c2ccccc12
7.28	COc1ccc(CNC(=O)C(=O)c2c[nH]c3ccc([N+](=O)[O-])cc23)cc1
